Source: patent US4837238A, “Pharmacologically useful pyrazolopyridines” (Beecham Group p.l.c., priority 1985, dated 1989)

How the values were obtained:
Type in all cases: in vivo
[1] = test system: mouse sensitized to oxazolone; assay: Mouse oxazolone screen (topical anti-inflammatory activity, sensitized mouse ear); conditions: 200 μg/ear, 1 hour before 100 μg oxazolone challenge, 24 hours, **p < 0.01, ***p < 0.001
Experimental: Compounds were tested for topical anti-inflammatory activity in a screen using the mouse sensitized to oxazolone, by a method modified from that of Dietrich and Hess [Int. Arch. Allergy, 38, 246 (1970)].
Mice were sensitized with oxazolone (2 mg in 20 μl EtOH) on a shaved area of the abdomen. 5 days later, the animals received 10 μl THF/MeOH (1:1 v/v) on the right ear and the test compound in the same solvent on the left ear. 1 hour later, the animals were challenged with 100 μg oxazolone in 10 μl acetone on each ear. Ear weights were measured 24 hours later. Percentage inhibition of the inflammatory swelling refers to the increase in weight of left ears (oxazolone plus compound in THF/MeOH) compared to untreated negative controls, as a proportion of the increase in weight of right ears (oxazolone only in THF/MeOH) over similar controls.

cantharidin mouse ear = assay: Mouse cantharidin screen (topical anti-inflammatory activity, mouse ear); conditions: 500 μg/ear, 25 μg cantharidin, 24 h, ***P < 0.001
Experimental: Compounds were tested for topical anti-inflammatory activity in a cantharidin mouse ear screen, modified from Swingle, K. F., Reiter, M. J. and Schwartzmiller, D. H., Arch. Int. Pharmacodyn., (1981), 254, 168-176).
(a) 25 μg cantharidin (in 10 μl THF/MeOH) was applied to both ears. Compound, in the same solvent, was applied at the same time, to the left ear only. Ears were weighed 24 h after cantharidin application. Percentage inhibition of the acute inflammatory swelling refers to the increase in weight of left ears (cantharidine plus compound) compared with solvent-treated negative controls, as a proportion of the increase in weight of right ears (cantharidin alone) over similar controls.

[2] = test system: Carrageenin-induced pleurisy in the rat; assay: Carrageenin-induced pleurisy in the rat (monocyte accumulation); conditions: 25 mg/kg p.o., 1 hour before and 24 and 48 hours after carrageenin, 72 hours; compared to control (p<0.05)
Experimental: This model of monocyte accumulation is based on the method of R. Vinegar, J. F. Truax, J. L. Selph and F. A. Voelker [Federation Proceedings 41, 2588-2595, 1982].
0.2 ml of a 2.0% solution of λ-carrageenin (Viscarin 402) in saline was injected intrapleurally in anaesthetised rats (wt. approx. 175-200 g). Compounds were administered 1 hour before carrageenin and at 24 and 48 hours after carrageenin. 72 hours after carrageenin injection, 4.0 ml of EDTA solution (5 g EDTA in 100 ml of 0.9% saline and 325 mg phenol red added together with saline to 1 liter) was injected intrapleurally after killing the animals, and the exudate was removed with a syringe through the diaphragm. Exudate volume was calculated from the dilution of the phenol red injected, determined spectrophotometrically (560 nm) and cellular content estimated with a DNA assay [Karsten U. and Wollenberger A. Anal. Biochem. 77, 464-470, 1977].

Compound	% INHIBITION (inflammatory swelling, ear weight) [1] [%]	% INHIBITION (acute inflammatory swelling, ear weight) (cantharidin mouse ear) [%]	inhibition of DNA content (exudate cellular content) [2] [%]	inhibition of exudate volume [2] [%]
CC(C)CNc1c2c(nc3cn[nH]c13)CCC2 [Example 8, 8-Isobutylamino-5,6,7-trihydro-1H-cyclopenta[b]pyrazolo[3,4-e]pyridine]	49	97		
CCCCNc1c(C)cnc2cn[nH]c12 [Example 1, 7n-Butylamino-6-methyl-1H-pyrazolo[4,3-b]pyridine]		95		
CC(C)CNc1c2c(nc3cn[nH]c13)CCCC2 [Example 6, 9-Isobutylamino-5,6,7,8-tetrahydro-1H-pyrazolo[4,3-b]quinoline]	66	97		
CCCNc1c(CN)cnc2cn[nH]c12 [Example 9, 6-Aminomethyl-7-propylamino-1H-pyrazolo[4,3-b]pyridine]		91		
OCCNc1c2c(nc3cn[nH]c13)CCCC2 [Example 5, 9-(2-Hydroxyethylamino)-5,6,7,8-tetrahydro-1H-pyrazolo-[4,3-b]quinoline]		91	31	36
